One data set has as its system NF-κB p50/p65. As to the kind of experiment: NF-κB electrophoretic mobility shift assay. Format: cell-based, human. The following applies: EMSA. On the technique in general: In EMSA bound probe runs differently from free probe, usually more slowly.
The subject of a further data set is IκB. As to the kind of experiment: IκB phosphorylation and expression (Western blot). Conditions: 3 days. The data set is classed as cell-based, human. How it is done:
The cells were then washed in PBS, resuspended in 1 ml of T40E10N150 buffer (40 mM Tris-HCl [pH 7.9], 10 mM EDTA [pH 8.0], 150 mM NaCl), put on ice for 5 minutes, and centrifuged for 4 minutes at 4° C. at 1,000 rpm. The cell pellet was then resuspended on ice in 70 μl of buffer (10 mM HEPES [pH 8.0], 400 mM NaCl, 0.1 mM EDTA, 5% glycerol, 1 mM DTT, 1 mM PMSF) and centrifuged at 15,000 rpm for 30 minutes at 4° C. The protein concentrations in supernatants were determined with the Bio-Rad Protein Assay (Bio-Rad; Munich, Germany).
Western blots: Equal amounts of extract (30 μg) were added to 8 μl of electrophoresis sample buffer (Firma Roth; Karlsruhe, Germany). After boiling, the extracts were loaded on 15% SDS-PAGE gels and electrophoretically separated. Proteins were transferred to nitrocellulose membranes, and detection was performed with the ECL Western blotting analysis system (Amersham). […]
A general note: A western blot detects proteins with antibodies after separation by electrophoresis.

Data set [1] relates to lamina propria mononuclear cells. As to the kind of experiment: TUNEL assay for apoptotic lamina propria mononuclear cells in IBD patients. The data set is classed as in vivo, human. The source says:
FIG. 3. […] (a) LPMCs were isolated and stimulated with anti-CD2/CD28 plus IL-2 in the presence or absence of 6-MP for 5 days followed by FACS analysis. […] Data represent mean values±SEM from eight patients with IBD per group. […] Data are representative of 5-13 patients per group. Magnification, ×20 (bar=100 μm) (ce) and ×40 (bar=50 μm) (f-h). (i) Quantification of the percentage of apoptotic, TUNEL-positive LPMCs in patients with IBD receiving 6-MP as compared with untreated control patients. […] Data are mean values±SEM of 5-13 patients per group.

The next data set has as its system caspase-3. As to the kind of experiment: Fluorometric protease assay, caspase-3 activity in T lymphocytes. Conditions: CD3/CD28/rIL-2 stimulated T cells, 5 days. Format: cell-based, human. As to the method:
(§1) Caspase-3 proteolytic activity was determined at day 5 by the caspase-3/CPP 32 fluorometric protease assay (Bio Source; Worcester, Mass., USA) according to the manufacturer's protocol. Caspase-8 and caspase-9 proteolytic activity were assessed in parallel by the corresponding fluorometric protease assays (Bio Source).

For a further data set, the system named is caspase-9. The data set is described as follows: Fluorometric protease assay, caspase-9 activity in T lymphocytes. Format: cell-based, human. The following applies: CD3/CD28/rIL-2 stimulated T cells, 5 days. As to the method:
as §1

The conditions of data set [2]: after oral administration and absorption; non-enzymatic attack by sulfhydryl-containing compounds; cited from earlier work.
The conditions of data set [3]: all 47 CD patients.
Method: Blood Sampling: Blood samples from patients were collected into EDTA tubes and the packed red blood cells (RBCs) were isolated by centrifugation within 6 hours after blood drawing. The RBCs were immediately frozen at −80° C. until analysis.
6-thioguanine nucleotides (6-TGN) and the methylated metabolites S-methyl-mercaptopurine ribonucleotides (6-MMPR) and S-methyl 6-thioguanosine nucleotides (MTGN) were quantified by a high-performance liquid chromatographic (HPLC) assay as described in Herrlinger et al., Aliment Pharmacol Ther. 19:1269-1276 (2004).
The concentrations of 6-thioguanosine 5′-mono-, di-, and triphosphate (TGMP, TGDP, and TGTP, respectively) were determined separately by the method described in Example 2 above. […] The 5′-phosphates were isolated, extracted, and oxidized as described by Rabel et al., Anal. Biochem. 224:315-322 (1995) with slight modifications. HPLC separation was achieved by reversed phase HPLC on a C18 column with phosphate buffer (20 mM, pH 6.8) and 5 mM tetrabutylammonium hydrogen sulfate/acetonitrile 84:16 (v/v) as the mobile phase. Using fluorescence detection, quantification of 6-thioguanosine nucleotides was performed at concentration ranges of 25 to 400 pmol/100 μL RBC for TGTP, 10 to 100 pmol/100 μL for TGDP, and 10 to 50 pmol/100 μL RBC for TGMP.
The test system of another data set is bcl-xL mRNA. The following applies: anti-CD3- plus anti-CD28-activated T lymphocytes.
A further data set relates to Rac1. Conditions: primary T cells upon azathioprine treatment.
The test system of a further data set is Crohn's disease. Conditions: CD patients, long-term azathioprine. As to the method: The diagnosis of CD was confirmed in all patients by radiographic, endoscopic, and histopathologic parameters. Clinical outcomes such as the Crohn's disease activity index (CDAI), number of flares per year, and demand for anti-TNF antibody (e.g., infliximab) treatment were determined on clinical visits.

Setting [4] is: subgroup n=6 (low 6-TGN, low TGTP ratio).
[5] abbreviates: subgroup n=13 (high 6-TGN and TGDP levels, ratio less than about 0.85).
[6] abbreviates: subgroup n=13 (high 6-TGN and TGTP levels, ratio greater than about 0.85).
[7] abbreviates: subgroup n=15 (low 6-TGN, high TGTP ratio).
Where [8] appears, read: subgroup n=21 (low 6-TGN levels).
Where [9] appears, read: subgroup n=26 (high 6-TGN levels).

Where “and” joins values, the source holds several entries; their conditions need not be identical. Identical values can stand only once. Like-named read-outs stand apart in the source and are kept apart here.

Method for NF-κB p50/p65: Isolation of nuclear proteins: T lymphocytes were washed twice in cold PBS and resuspended in 500 μl of buffer A (10 mM HEPES, 1.5 mM MgCl2, 19 mM KCl, 0.5 mM PMSF, 1 mM DTT) followed by addition of 20 μl of Triton X-100 (Sigma-Aldrich) and incubation on ice for 5 minutes. Cells were centrifuged for 10 minutes at 4° C., followed by the resuspension of the nuclear pellet in buffer C (20 mM HEPES, 1.5 mM MgCl2, 0.2 mM EDTA, 25% glycerol, 0.5 mM PMSF, 1 mM DTT). Finally, the nuclei were homogenized using mini stir bars for 1 hour at 4° C. followed by centrifugation at 15,000 rpm for 15 minutes at 4° C. The concentration of nuclear proteins in supernatants was assessed using the Bio-Rad Protein Assay.
Electrophoretic mobility shift assays: Electrophoretic mobility shift assays (EMSAs) were performed as described in Atreya et al., supra. Oligonucleotides for EMSA were obtained from Santa Cruz Biotech (Heidelberg, Germany). The sequences were as follows: NF-κB, 5′-[sequence]-3′ (SEQ ID NO: 1) and 3′-[sequence]-5′ (SEQ ID NO: 2); and SP-1,5′-[sequence]-3′ (SEQ ID NO: 3) and 3′-[sequence]-5′ (SEQ ID NO: 4). Oligonucleotides were end labeled with [^32P]γ-ATP (>5000 Ci/mmol; Amersham; Arlington Heights, Ill., USA) using T4 polynucleotide kinase (New England Biolabs; Beverly, Mass., USA). […]
Method for bcl-xL mRNA: The mRNA of T cells was extracted at the indicated time points using the Tri-reagent (Sigma-Aldrich) according to the manufacturer's protocol. In brief, the cell pellet was lysed in 1 ml of Tri-reagent before addition of 200 μl of chloroform (Sigma-Aldrich; Steinheim, Germany). Each sample was gently mixed before incubation (for 5 minutes at 20° C.) and centrifugation (12,000 g for 15 minutes at 4° C.). The aqueous phase was transferred to a fresh tube, and 0.5 ml of isopropanol (Sigma-Aldrich) was added. Samples were allowed to stand for 5 minutes at room temperature before centrifugation at 12,000 g (for 10 minutes at 4° C.). The supernatants were removed, and the RNA pellet was washed in 75% ethanol.
Gene arrays: mRNA from T lymphocytes was analyzed by the human apoptosis expression array (R&D) as follows. To generate radiolabeled cDNA, 4 μl of human apoptosis-specific primers (R&D) were added to 4 μg of the isolated mRNA, heated in a thermal cycler at 90° C. for 2 minutes, and incubated at 42° C. for 180 minutes in the presence of reverse transcriptase buffer (50 mM Tris-HCl, 8 mM MgCl2, 30 mM KCl, 1 mM DTT), 333 μM dATP, 333 μM dGTP, 333 μM dTTP, 1.67 μM dCTP, 20 U of RNasin, 20 μCi of ^32P-labeled dCTP (Amersham; Freiburg, Germany), and 50 U of AMV reverse transcriptase. […]

Turning to `Sc1ncnc2nc[nH]c12` [6-MP, 6-mercaptopurine], the “nuclear expression of the p65 subunit of NF-κB” value in the data set on NF-κB p50/p65 is given as “downregulated”. Moreover, the “CD28-induced activation of NF-κB p50/p65” value in the data set with NF-κB p50/p65 (nuclear proteins after 3 days) was “suppressed”. Besides, in the data set with IκB, the IκB phosphorylation result is “suppressed” and the “IκB protein expression levels” value is on record as “unchanged”. Moreover, in data set [1] (6-MP-resistant patients with IBD), the “number of apoptotic cells” value is listed as “no increase”. Further, the “number of apoptotic lamina propria mononuclear cells” value in [1] (successful 6-MP treatment vs untreated patients with IBD, P<0.01) is “significant increase”. Moreover, the caspase-3 activity result in the data set with caspase-3 is recorded as “marked induction”. In addition, the caspase-9 activity entry in the data set with caspase-9 is given as “marked induction”.

In the case of `Cn1cnc([N+](=O)[O-])c1Sc1ncnc2nc[nH]c12` [azathioprine, Azathioprine], the “conversion to 6-MP” value in [2] was “approximately 90%”. In addition, the “TGMP levels in RBC” value in data set [3] is reported as “only detectable in traces”. Besides, the “bcl-xL mRNA expression” value with bcl-xL mRNA was “strongly suppressed”. Moreover, the “mRNA expression of other genes such as IL-2R, TACI, and GAPDH” value with bcl-xL mRNA is recorded as “not affected”. Besides, the “6-TG detected in Rac1 pull-downs” value in the data set on Rac1 is given as “approximately 120 pg of 6-TG per microgram”. Besides, the “CDAI (Crohn's disease activity index)” value in the data set with Crohn's disease (setting [4]) is reported as 151 ± 55; with Crohn's disease (setting [5]), 277 ± 62; in the data set with Crohn's disease (setting [6]), 149 ± 35; in the data set with Crohn's disease (setting [7]) it was 189 ± 28; in the data set on Crohn's disease (setting [8]), 176 ± 26; in the data set on Crohn's disease (setting [9]), 206 ± 36. The “Flares (number of flares per year)” value is 1.4 ± 1.3 in the data set on Crohn's disease (setting [4]); 2.1 and 2.1 ± 0.9 in the data set on Crohn's disease (setting [5]); 1.9 ± 1 with Crohn's disease (setting [7]); 2.1 ± 0.9 in the data set with Crohn's disease (setting [8]); 1.1 ± 0.6 in the data set with Crohn's disease (setting [9]). Further, the “INF (infliximab use)” value is 1.0 ± 0.6 with Crohn's disease (setting [4]); 1.1 and 1.1 ± 0.5 in the data set on Crohn's disease (setting [5]); 0.36 and 0.36 ± 0.2 in the data set with Crohn's disease (setting [6]); 1.1 ± 0.7 in the data set with Crohn's disease (setting [7]); 1.1 ± 0.5 in the data set with Crohn's disease (setting [8]); 0.7 ± 0.3 in the data set on Crohn's disease (setting [9]). The “Response (clinical response rate)” value with Crohn's disease (setting [4]) was 0.5 ± 0.3; with Crohn's disease (setting [5]), 0.15 and 0.15 ± 0.1; in the data set on Crohn's disease (setting [7]), 0.1 ± 0.1; in the data set on Crohn's disease (setting [8]), 0.16 and 0.16 ± 0.1.

Values taken from US7524851B2 (Robert Bosch Gesellschaft fur Medizinische Forschung (RBMF), priority 2003, dated 2009).
